# Measurements from patent publication US20180116993A1, “MODULATORS OF FARNESOID X RECEPTOR AND METHODS FOR THE USE THEREOF” (XIAMEN UNIVERSITY, priority 2015, published 2018).
# Marks after values point to notes of the source that are not given here.
# How the values were obtained:
# [1] = system: mice with APAP-induced liver injury; test: Acetaminophen (APAP)-induced liver injury in mouse; type: in vivo; conditions: for Hepatic GSH (μM/g liver tissue) / ALT (U/L): then APAP 500 mg/kg; for ALT (U/L): serum, vehicle 786 ± 111; for Liver morphology by H&E staining (FIG. 1): 10 mg/kg (Tschimganine 20 mg/kg) i.p. five days, then APAP, compared to severe liver injury in control group; for expression levels of GPX1 and UGT1α1 in liver: mRNA by RT-PCR; for expression levels of GPX1 and UGT1α1 in liver / activities of serum AST, ALT and LDH: vs vehicle control group, Table 5 (not given)
# Excerpt: Methods: Acetaminophen (APAP)-induced liver injury in mouse is a commonly used model to study drugs protecting liver. Overdose of APAP causes liver injury by inducing the production of reactive oxygen species and reactive nitrogen species, and excessive consumption of reductive substances such as antioxidant glutathione (GSH), leading to the reduction of GSH in vivo, and the following upregulation of the activities of the aspartate aminotransferase (AST), the alanine aminotransferase (ALT) and the lactate dehydrogenase (LDH), which will result in liver inflammation and necrosis. In this example, the APAP-induced liver injury was used to detect the protection and repair functions of our compounds in liver injury.
# One-year or 8-week age mice were maintained under environmentally controlled conditions with free access to standard chow diet and water. Animal experiments were conducted in the barrier facility of the Laboratory Animal Center, Xiamen University, approved by the Institutional Animal Use and Care Committee of Xiamen University, China.
# Compounds were solved with DMSO and then prepared to work concentration with 40% HBC (2-hydroxypropyl-β-cyclodextrin) in which the final work concentrations of compounds are 5 mg/kg body weight, 10 mg/kg or 20 mg/kg in 100 μl injection volume and the concentration of DMSO is 10%. Compounds were intraperitoneal (i.p.) injected once daily for five days. For Feroline and Tschimganine, one-year age mice were used in the experiment. For other compounds, 8-week age mice were used. […] For Tschimganine, 20 mg/kg dose of compound was administered to mice. For other compounds, 5 mg/kg dose of compounds were administered to mice. Six hours after the fifth injection, 500 mg/kg body weight of APAP solved in PBS was i.p. injected to the mice. 24 hours later, mice were sacrificed. Part of each liver was fixed in 4% paraformaldehyde, and the liver histology characterization was analyzed by haematoxylin and eosin (H&E) staining with paraffin-embedded sections by standard procedures. Other liver tissues were collected for detecting the GSH levels, and the mRNA expression of genes involved in liver repairing, such as GPX1 and UGT1a1, by RT-PCR. The serums were collected to measure enzymes activities including AST, ALT and LDH. For the synthetic derivatives, ALT and GSH were selected as indicating markers for the function of these compounds.
# db/db mice [2] = test: Hepatic triglyceride, liver histology, serum ALT and ALP in high-fat diet fed db/db mice; type: in vivo, mouse; conditions: for Hepatic triglyceride (mM/g): vehicle 148 ± 14; for Serum ALP (U/L): vehicle 129 ± 15
# Method in brief: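 High-fat diet fed db/db mice aged 8-10 weeks dosed 10 mg/kg compound once daily for 10 days. Liver sections stained with H&E and 0.3% oil red O; hepatic triglyceride measured by tissue assay kit; serum ALP and ALT activities measured by kit.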
# db/db mice [3] = test: Serum/blood metabolic parameters in high-fat diet fed db/db mice; type: in vivo, mouse
# Excerpt: KK-Ay mice (KK/Upj-Ay/J) are animal models with moderate obese and diabetes with insulin resistance. KK-Ay mice develop hyperglycemia, hyperinsulinemia, glucose intolerance and obesity as well as fat accumulation in liver by eight weeks of age. Pancreatic islets are hypertrophied and the β-cells are degranulated. db/db mice (BKS.Cg-Dockr+/+ Lepr^db/Jnju) are animal models of type II diabetes. They have the phenotype of insulin resistance. These model mice were used to detect the functions of our compounds on metabolic diseases.
# 8-10 weeks age mice were maintained as example 4, and fed with high-fat diet (Research Diets, D12492). Mice were i.p. injected with compounds once daily for 7, 10, 11 or 14 days as indicated in each table. After the last compounds injection, mice were fasted for 6 hours with free access to water, and then sacrificed. Part of each liver was fixed in 4% paraformaldehyde for H&E staining, and other liver tissues were stored in liquid nitrogen for enzyme activity measurement and gene expression analysis by RT-PCR. The serums were collected to measure metabolic parameters, including serum glucose, insulin, cholesterol, free fatty acid (FFA) and triglyceride levels. Serum glucose was analyzed using glucose oxidase method (Applygen, Beijing, China). The blood glucose in Table 11 was measured with Berenger blood glucose test strips (B/BRAUN, German) from blood by cutting mice tail after the 6th injection and following fast for 16 hours. Serum cholesterol and FFA were analyzed using Cholesterol Assay Kit and FFA Assay Kit (Bioassay Systems, USA; Nanjing Jiancheng Bioengineering Institute, China; FFA ELISA, R&D, USA), respectively. Serum triglyceride was analyzed using Triglyceride Assay Kit (Bioassay Systems, USA; WAKO Chemicals Inc., Japan; Applygen, Beijing, China). Liver triglyceride was analyzed using Tissue triglyceride assay kit (Applygen, Beijing, China). Serum insulin levels were measured by the Ultra Sensitive Mouse Insulin ELISA Kit (Crystal Chem. Inc., USA). RNA was isolated using Tissue RNA kit (Omega Bio-Tek, GA). The first strand cDNA were obtained by TAKARA reverse transcription kit. Real-time quantitative PCR were performed on a CFX96™ Real-Time PCR Detection System (Bio-Rad) using SYBR Premix Ex Taq™ (TAKARA). Relative mRNA expression levels were normalized to actin levels. […]
# [4] = 5 mg/kg i.p. once daily for five days, 8-week age mice, vehicle 9.1 ± 0.5
# [5] = 10 mg/kg for 10 days, vehicle 377 ± 48, Table 15
# [6] = 5 mg/kg i.p. once daily for five days, 8-week age mice
# [7] = 10 mg/kg once daily for 10 days
# [8] = 10 mg/kg once daily for 10 days, vehicle 377 ± 48, Table 17
# [9] = 10 mg/kg, treat for 10 days, vehicle 527 ± 63
compound,measurement,setting,value
"O=C(OC1CCCCCCCCCCC1)c1ccc(O)cc1 [XD-11, cyclododecyl 4-hydroxybenzoate]",Hepatic GSH (μM/g liver tissue),[1]; [4],12.6 ± 0.4 ^b μM/g liver tissue
same,Hepatic triglyceride (mM/g),db/db mice [2]; 10 mg/kg for 10 days,102 ± 13 ^a mM/g
same,Serum ALT (U/L),db/db mice [2]; [5],106 ± 26 ^a U/L
"Cc1cc(C(=O)OC2CCCCCCC2)ccc1O [XD-17, cyclooctyl 4-hydroxy-3-methylbenzoate]",ALT (U/L),[1]; [6],117 ± 39 ^c U/L
same,Serum ALP (U/L),db/db mice [2]; [7],76 ± 17^a U/L
same,Serum ALT (U/L),db/db mice [2]; [8],185 ± 51^a U/L
"COc1cc(C(=O)OC2CCCCCCC2)ccc1O [XD-18, cyclooctyl 4-hydroxy-3-methoxybenzoate]",ALT (U/L),[1]; [6],135 ± 48 ^a U/L
same,Serum ALP (U/L),db/db mice [2]; [7],77 ± 9^c U/L
same,Serum ALT (U/L),db/db mice [2]; [8],129 ± 19^b U/L
CC1(C)[C@@H]2CC[C@@]1(C)[C@@H](OC(=O)c1ccc(O)cc1)C2 [Tschimgine],Liver morphology by H&E staining (FIG. 1),[1],almost normal liver morphology
same,expression levels of GPX1 and UGT1α1 in liver,[1],significantly upregulated
same,"activities of serum AST, ALT and LDH",[1],dramatically lower
same,Serum Triglyceride (mg/dl),"db/db mice [3]; 10 mg/kg for 11 days, vehicle 96 ± 16",38 ± 8^a mg/dl
same,Serum Cholesterol (mg/dl),"db/db mice [3]; 10 mg/kg for 11 days, vehicle 121 ± 13",96 ± 3^a mg/dl
same,Serum FFA (μM),"db/db mice [3]; 10 mg/kg for 11 days, vehicle 371 ± 27",302 ± 21^a μM
same,Blood Glucose (mg/dl),"db/db mice [3]; 10 mg/kg, 11 days, tail blood after the 6th injection and 16 h fast, vehicle 452 ± 24",252 ± 54^b mg/dl
"COc1cc(C(=O)OC2CCC3CCCCC3C2)ccc1O (stereo not drawn) [XD-30, decahydro-naphthalen-2-yl 4-hydroxy-3-methoxybenzoate]",ALT (U/L),[1]; [6],107 ± 41 ^b U/L
same,Serum Glucose (mg/dl),db/db mice [3]; [9],400 ± 51^a mg/dl
same,Hepatic triglyceride (mM/g),db/db mice [2]; 10 mg/kg for 10 days,108 ± 8 ^c mM/g
same,Serum ALT (U/L),db/db mice [2]; [5],92 ± 27 ^a U/L
same,Serum ALP (U/L),db/db mice [2]; [7],64 ± 14^a U/L
same,Serum ALT (U/L),db/db mice [2]; [8],92 ± 27^a U/L
COc1cc(C(=O)O[C@H]2C[C@H]3CC[C@]2(C)C3(C)C)ccc1O [Tschimganine],Liver morphology by H&E staining (FIG. 1),[1],almost normal liver morphology
same,Hepatic GSH (μM/g liver tissue),"[1]; 20 mg/kg i.p. once daily for five days, one-year age mice, vehicle 8.0 ± 2.8",14.9 ± 0.6^b μM/g liver tissue
same,expression levels of GPX1 and UGT1α1 in liver,[1],significantly upregulated
same,"activities of serum AST, ALT and LDH",[1],dramatically lower
same,Serum Insulin (ng/ml),"db/db mice [3]; 10 mg/kg for 7 days, vehicle 12 ± 3",4.7 ± 0.4^b ng/ml
same,Serum Glucose (mg/dl),"db/db mice [3]; 10 mg/kg for 7 days, vehicle 521 ± 54",342 ± 36^a mg/dl
"Nc1ccc(C(=O)OC2CCCCCC2)cc1 [XD-12, cycloheptyl 4-aminobenzoate]",Hepatic GSH (μM/g liver tissue),[1]; [4],12.5 ± 0.7 ^a μM/g liver tissue
same,Hepatic triglyceride (mM/g),db/db mice [2]; 10 mg/kg for 10 days,103 ± 20 ^a mM/g
same,Serum ALT (U/L),db/db mice [2]; [5],199 ± 37 ^a U/L
"COc1cc(C(=O)OC2CCC3CCCCC3C2)ccc1[N+](=O)[O-] (stereo not drawn) [XD-36, decahydro-naphthalen-2-yl 3-methoxy-4-nitrobenzoate]",Hepatic GSH (μM/g liver tissue),[1]; [4],14.8 ± 0.3 ^b μM/g liver tissue
same,Serum Glucose (mg/dl),db/db mice [3]; [9],366 ± 65^a mg/dl
"CC1(C)C2CCC1(C)C(OC(=O)c1ccc(=O)oc1)C2 (stereo not drawn) [XD-9, 1,7,7-trimethyl-bicyclo[2.2.1]-heptan-2-yl 6-oxo-6H-pyran-3-carboxylate]",Serum Glucose (mg/dl),db/db mice [3]; [9],399 ± 41^a mg/dl
same,Hepatic triglyceride (mM/g),db/db mice [2]; 10 mg/kg for 10 days,93 ± 14 ^a mM/g
same,Serum ALT (U/L),db/db mice [2]; [5],121 ± 33 ^a U/L
COc1cc(C(=O)OC2C/C(C)=C/CC/C(C)=C/[C@@H](O)[C@H]2C(C)C)ccc1O (stereo partly drawn) [Tschimganidine],Liver morphology by H&E staining (FIG. 1),[1],almost normal liver morphology
same,expression levels of GPX1 and UGT1α1 in liver,[1],significantly upregulated
same,"activities of serum AST, ALT and LDH",[1],dramatically lower
"CC1(C)C2CCC1(C)C(OC(=O)c1ccc(=O)[nH]c1)C2 (stereo not drawn) [XD-8, 1,7,7-trimethyl-bicyclo[2.2.1]-heptan-2-yl 6-oxo-1,6-dihydropyridine-3-carboxylate]",ALT (U/L),[1]; [6],115 ± 38 ^c U/L
same,Hepatic triglyceride (mM/g),db/db mice [2]; 10 mg/kg for 10 days,102 ± 8 ^c mM/g
same,Serum ALT (U/L),db/db mice [2]; [5],115 ± 31 ^a U/L
"Cc1cc(C(=O)OC2CCC3CCCCC3C2)ccc1O (stereo not drawn) [XD-29, decahydro-naphthalen-2-yl 4-hydroxy-3-methylbenzoate]",ALT (U/L),[1]; [6],118 ± 31 ^c U/L
same,Hepatic triglyceride (mM/g),db/db mice [2]; 10 mg/kg for 10 days,116 ± 11 ^a mM/g
same,Serum ALT (U/L),db/db mice [2]; [5],101 ± 46^b U/L
same,Serum ALP (U/L),db/db mice [2]; [7],69 ± 9^c U/L
same,Serum ALT (U/L),db/db mice [2]; [8],101 ± 46^b U/L
"CC1(C)C2CCC1(C)C(OC(=O)c1ccc(F)c(Br)c1)C2 (stereo not drawn) [XD-13, 1,7,7-trimethyl-bicyclo[2.2.1]-heptan-2-yl 3-bromo-4-fluoro-benzoate]",Hepatic GSH (μM/g liver tissue),[1]; [4],13.7 ± 0.9 ^a μM/g liver tissue
same,Serum ALP (U/L),db/db mice [2]; [7],92 ± 7^c U/L
same,Serum ALT (U/L),db/db mice [2]; [8],135 ± 5^c U/L
"CC1(C)C2CCC1(C)C(OC(=O)c1ccc(F)cc1)C2 (stereo not drawn) [XD-0, 1,7,7-trimethyl-bicyclo[2.2.1]-heptan-2-yl 4-fluorobenzoate]",Hepatic GSH (μM/g liver tissue),[1]; [4],15.0 ± 0.5 ^b μM/g liver tissue
same,Serum Glucose (mg/dl),db/db mice [3]; [9],223 ± 33^b mg/dl
same,Hepatic triglyceride (mM/g),db/db mice [2]; 10 mg/kg for 10 days,91 ± 22 ^a mM/g
same,Serum ALT (U/L),db/db mice [2]; [5],106 ± 22 ^a U/L
"O=C(OC1CCC2CCCCC2C1)c1ccc(O)cc1 (stereo not drawn) [XD-28, decahydro-naphthalen-2-yl 4-hydroxy-benzoate]",ALT (U/L),[1]; [6],114 ± 25 ^c U/L
same,Hepatic triglyceride (mM/g),db/db mice [2]; 10 mg/kg for 10 days,87 ± 10 ^c mM/g
same,Serum ALT (U/L),db/db mice [2]; [5],103 ± 17^b U/L
C/C1=C\CCC(C)(O)/C=C/C(C(C)C)C(OC(=O)c2ccc(O)cc2)C1 (stereo not drawn) [Feroline],Liver morphology by H&E staining (FIG. 1),[1],almost normal liver morphology
same,Hepatic GSH (μM/g liver tissue),"[1]; 10 mg/kg i.p. once daily for five days, one-year age mice, vehicle 8.0 ± 2.8",14.2 ± 1.6^b μM/g liver tissue
same,expression levels of GPX1 and UGT1α1 in liver,[1],significantly upregulated
same,"activities of serum AST, ALT and LDH",[1],dramatically lower
"Cc1cc(C(=O)OC2CCC3CCCCC3C2)ccc1[N+](=O)[O-] (stereo not drawn) [XD-35, decahydro-naphthalen-2-yl 3-methyl-4-nitro-benzoate]",Hepatic GSH (μM/g liver tissue),[1]; [4],12.6 ± 1.6 ^a μM/g liver tissue
same,Serum Glucose (mg/dl),db/db mice [3]; [9],337 ± 67^a mg/dl
"CC1(C)C2CCC1(C)C(OC(=O)c1ccncc1)C2 (stereo not drawn) [XD-6, 1,7,7-trimethyl-bicyclo[2.2.1]-heptan-2-yl isonicotinate]",ALT (U/L),[1]; [6],109 ± 26 ^c U/L
same,Hepatic triglyceride (mM/g),db/db mice [2]; 10 mg/kg for 10 days,90 ± 11^b mM/g
same,Serum ALT (U/L),db/db mice [2]; [5],101 ± 28 ^a U/L
